PubChem BioAssay (NCI)
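Where inhibition never reached the appropriate level, the endpoint shown equals the highest concentration tested. Otherwise, values were interpolated linearly from a five-concentration, 48-hour dose response in 96-well plates. At the GI50, growth is halved. At the TGI there is no net growth.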

Experiments:
Test in all cases: growth of human tumour cells (NCI), 48 h
[1] = system: OVCAR-3 ovarian
[2] = system: TK-10 renal
[3] = system: ACHN renal
[4] = system: RXF 393 renal
[5] = system: BT-549 breast
[6] = system: IGROV1 ovarian
[7] = system: NCI-H226 lung
[8] = system: NCI-H522 lung
[9] = system: HOP-92 NSCLC
[10] = system: CCRF-CEM leukemia
[11] = system: SN12C renal
[12] = system: DU-145 prostate
[13] = system: K-562 leukemia
[14] = system: SNB-75 CNS
[15] = system: MCF7 breast
[16] = system: A549 NSCLC
[17] = system: SF-268 CNS
[18] = system: MDA-MB-435
[19] = system: U251 CNS
[20] = system: UACC-257 melanoma
[21] = system: HOP-62 NSCLC
[22] = system: SK-OV-3 ovarian
[23] = system: NCI-H460 lung
[24] = system: LOX IMVI melanoma
[25] = system: M14 melanoma
[26] = system: HCT-116 colon
[27] = system: SNB-19 CNS
[28] = system: HCC-2998 colon
[29] = system: SK-MEL-2 melanoma
[30] = system: SF-295 CNS
[31] = system: OVCAR-8 ovarian
[32] = system: MALME-3M melanoma
[33] = system: T-47D breast
[34] = system: HL-60(TB) leukemia
[35] = system: PC-3 prostate
[36] = system: MDA-MB-231 breast
[37] = system: OVCAR-5 ovarian
[38] = system: HS 578T breast
[39] = system: EKVX NSCLC
[40] = system: COLO 205 colon
[41] = system: UO-31 renal
[42] = system: HCT-15 colon
[43] = system: UACC-62 melanoma
[44] = system: SW-620 colon
[45] = system: SF-539 CNS
[46] = system: HT29 colon
[47] = system: SK-MEL-5 melanoma
[48] = system: A498 renal
[49] = system: RPMI-8226 leukemia
[50] = system: SK-MEL-28 melanoma
[51] = system: OVCAR-4 ovarian
[52] = system: 786-0 renal
[53] = system: CAKI-1 renal
[54] = system: KM12 colon
[55] = system: NCI-H23 lung

Question: With `CCOC(=O)c1c(C)n(Cc2ccc(OC)cc2)c2c1cc(O)c1[nH]c3c(c12)CCCC3` as the molecule, how does the GI50 [1] read?
Answer: 3.73 µM

Question: And the TGI [1]?
Answer: 18.6 µM

Question: What about the GI50 [2] of the same molecule?
Answer: 12.5 µM

Question: What about the TGI [2] of the same molecule?
Answer: 52.9 µM

Question: What about the GI50 [3] of the same molecule?
Answer: 6.72 µM

Question: And the TGI [3]?
Answer: 35.6 µM

Question: What about the GI50 [4] of the same molecule?
Answer: 11.6 µM

Question: And the TGI [4]?
Answer: 43.5 µM

Question: What about the GI50 [5] of the same molecule?
Answer: 4.21 µM

Question: And the TGI [5]?
Answer: 27.8 µM

Question: What about the GI50 [6] of the same molecule?
Answer: 3.76 µM

Question: What about the TGI [6] of the same molecule?
Answer: 20.5 µM

Question: What about the GI50 [7] of the same molecule?
Answer: 15.5 µM

Question: And the TGI [7]?
Answer: 32.9 µM

Question: What about the GI50 [8] of the same molecule?
Answer: 1.75 µM

Question: What about the TGI [8] of the same molecule?
Answer: 3.97 µM

Question: What about the GI50 [9] of the same molecule?
Answer: 2.5 µM

Question: And the TGI [9]?
Answer: 55.4 µM

Question: And the GI50 [10]?
Answer: 4.22 µM

Question: What about the TGI [10] of the same molecule?
Answer: > 100 µM

Question: And the GI50 [11]?
Answer: 7.79 µM

Question: And the TGI [11]?
Answer: 28.9 µM

Question: And the GI50 [12]?
Answer: 27.5 µM

Question: What about the TGI [12] of the same molecule?
Answer: > 100 µM

Question: What about the GI50 [13] of the same molecule?
Answer: 5.22 µM

Question: What about the TGI [13] of the same molecule?
Answer: > 100 µM

Question: And the GI50 [14]?
Answer: 4.77 µM

Question: What about the TGI [14] of the same molecule?
Answer: > 100 µM

Question: What about the GI50 [15] of the same molecule?
Answer: 4.97 µM

Question: And the TGI [15]?
Answer: 19.8 µM

Question: What about the GI50 [16] of the same molecule?
Answer: 8.71 µM

Question: What about the TGI [16] of the same molecule?
Answer: 71.9 µM

Question: And the GI50 [17]?
Answer: 3.47 µM

Question: And the TGI [17]?
Answer: 18.7 µM

Question: And the GI50 [18]?
Answer: 15.9 µM

Question: And the TGI [18]?
Answer: 82 µM

Question: And the GI50 [19]?
Answer: 2.31 µM

Question: What about the TGI [19] of the same molecule?
Answer: 5.89 µM

Question: What about the GI50 [20] of the same molecule?
Answer: 1.77 µM

Question: What about the TGI [20] of the same molecule?
Answer: 9.66 µM

Question: And the GI50 [21]?
Answer: 10.5 µM

Question: And the TGI [21]?
Answer: 24.9 µM

Question: What about the GI50 [22] of the same molecule?
Answer: 9.47 µM

Question: And the TGI [22]?
Answer: 51.3 µM

Question: What about the GI50 [23] of the same molecule?
Answer: 8.63 µM

Question: And the TGI [23]?
Answer: 27.8 µM

Question: What about the GI50 [24] of the same molecule?
Answer: 3.91 µM

Question: And the TGI [24]?
Answer: 16.6 µM

Question: And the GI50 [25]?
Answer: 11.8 µM

Question: And the TGI [25]?
Answer: 34.2 µM

Question: And the GI50 [26]?
Answer: 2.74 µM

Question: And the TGI [26]?
Answer: 12.1 µM

Question: And the GI50 [27]?
Answer: 4.84 µM

Question: What about the TGI [27] of the same molecule?
Answer: 65.2 µM

Question: And the GI50 [28]?
Answer: 2.39 µM

Question: What about the TGI [28] of the same molecule?
Answer: 14.5 µM

Question: And the GI50 [29]?
Answer: 2.39 µM

Question: What about the TGI [29] of the same molecule?
Answer: 7.05 µM

Question: And the GI50 [30]?
Answer: 13.7 µM

Question: What about the TGI [30] of the same molecule?
Answer: 42.8 µM

Question: What about the GI50 [31] of the same molecule?
Answer: 3.05 µM

Question: What about the TGI [31] of the same molecule?
Answer: 10.9 µM

Question: What about the GI50 [32] of the same molecule?
Answer: 2.85 µM

Question: What about the TGI [32] of the same molecule?
Answer: 18.4 µM

Question: And the GI50 [33]?
Answer: 2.02 µM

Question: What about the TGI [33] of the same molecule?
Answer: 38.8 µM

Question: What about the GI50 [34] of the same molecule?
Answer: 3.03 µM

Question: And the TGI [34]?
Answer: > 100 µM

Question: And the GI50 [35]?
Answer: 2.86 µM

Question: And the TGI [35]?
Answer: 37.4 µM

Question: What about the GI50 [36] of the same molecule?
Answer: 0.617 µM

Question: What about the TGI [36] of the same molecule?
Answer: > 100 µM

Question: And the GI50 [37]?
Answer: 2.39 µM

Question: What about the TGI [37] of the same molecule?
Answer: 17.5 µM

Question: What about the GI50 [38] of the same molecule?
Answer: 3.26 µM

Question: And the TGI [38]?
Answer: 21.8 µM

Question: What about the GI50 [39] of the same molecule?
Answer: 4.9 µM

Question: What about the TGI [39] of the same molecule?
Answer: 52.5 µM

Question: What about the GI50 [40] of the same molecule?
Answer: 0.0865 µM

Question: And the TGI [40]?
Answer: 8.35 µM

Question: And the GI50 [41]?
Answer: 1.84 µM

Question: And the TGI [41]?
Answer: 4.05 µM

Question: What about the GI50 [42] of the same molecule?
Answer: 3.44 µM

Question: And the TGI [42]?
Answer: 13.2 µM

Question: What about the GI50 [43] of the same molecule?
Answer: 1.97 µM

Question: What about the TGI [43] of the same molecule?
Answer: 4.61 µM

Question: And the GI50 [44]?
Answer: 3.72 µM

Question: And the TGI [44]?
Answer: 13.9 µM

Question: What about the GI50 [45] of the same molecule?
Answer: 2.76 µM

Question: And the TGI [45]?
Answer: 7.07 µM

Question: What about the GI50 [46] of the same molecule?
Answer: 12.9 µM

Question: And the TGI [46]?
Answer: > 100 µM

Question: And the GI50 [47]?
Answer: 1.74 µM

Question: What about the TGI [47] of the same molecule?
Answer: 3.24 µM

Question: And the GI50 [48]?
Answer: 21.3 µM

Question: What about the TGI [48] of the same molecule?
Answer: 60.6 µM

Question: What about the GI50 [49] of the same molecule?
Answer: 3.78 µM

Question: What about the TGI [49] of the same molecule?
Answer: 58 µM

Question: What about the GI50 [50] of the same molecule?
Answer: 10.7 µM

Question: And the TGI [50]?
Answer: > 100 µM

Question: And the GI50 [51]?
Answer: 15.6 µM

Question: What about the TGI [51] of the same molecule?
Answer: 88.6 µM

Question: And the GI50 [52]?
Answer: 13.1 µM

Question: What about the TGI [52] of the same molecule?
Answer: 49.4 µM

Question: What about the GI50 [53] of the same molecule?
Answer: 16.4 µM

Question: What about the TGI [53] of the same molecule?
Answer: 54.9 µM

Question: And the GI50 [54]?
Answer: 2.04 µM

Question: And the TGI [54]?
Answer: 5.43 µM

Question: And the GI50 [55]?
Answer: 1.9 µM

Question: What about the TGI [55] of the same molecule?
Answer: 13.3 µM
